According to article PMC11228983, “Rapid Protein–Ligand Affinity Determination by Photoinduced Hyperpolarized NMR” (Journal of the American Chemical Society, 2024):
Residues, ends and D or L forms follow the SMILES beside them.

Legend:
[1] = biological target: T1, PDZ2 domain of human tyrosine phosphatase 1E (hPTP1E) (Homo sapiens, UniProt Q12923); assay: Competition CIDNP-KD assay with photo-CIDNP-active reporter peptide; format: binding; conditions: reporter WVSAV 20 μM (KD,R 170 μM), 5 μM PDZ2; 1000 ms irradiation, single scan; read-out: Competition CIDNP-KD (KD,C), Hβ of reporter WVSAV
T1 construct: the constructs used for the PDZ2 domain of human tyrosine phosphatase 1E; polyhistidine (N); made in house; host or cells: Escherichia coli BL21 (DE3)
T1 sequence (Q12923 1368-1452 limits assumed): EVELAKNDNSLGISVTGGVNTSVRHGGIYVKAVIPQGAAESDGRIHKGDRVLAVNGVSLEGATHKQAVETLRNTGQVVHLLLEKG
Text: Photo-CIDNP hyperpolarization is limited to a particular chemical space of ligands that contain heteroaromatics and heterosubstituted aromatic rings.[24],[29] To address the challenge of limited chemical space, we extend CIDNP-KD to measure the affinity of nonpolarizable ligands through competition with a polarizable reporter ligand R, whose affinity KD,R is known as depicted in Scheme 2. By adding a competitor C, the concentration and photo-CIDNP signal of the reporter ligand R* will increase, indicating the reduced amount of the complex PR* and, by extension, PR.[30]
To calculate the concentration of the ligand–protein complex in the presence of the binding competitor, the ratio of the amplification factors in the presence and absence of the competitor [drawing 6] […]
These competitor ligands lack a tryptophan residue, whereas the reporter ligands WVSAV and WQVSAV are photo-CIDNP-active due to the tryptophan tag. The hyperpolarized signal of WVSAV or WQVSAV in the presence of the PDZ2 domain was measured for increasing concentrations of the peptides QVSAV or ENEQVSAV, respectively. […]
Figure 3 KD determination of nonphoto-CIDNP-active peptides binding to a PDZ2 domain. […] The bound reporter population is plotted, calculated from the hyperpolarized tryptophan Hβ using eq 7. […] Each data point is measured with a single-scan experiment with a laser irradiation duration of (A) 1000 ms or (B) 2000 ms. […]

[2] = biological target: T1, PDZ2 domain of human tyrosine phosphatase 1E (hPTP1E); assay: 2D [1H,15N]-HSQC chemical shift perturbation titration; format: binding; conditions: 30 μM 15N PDZ2, pH 6.8, 298 K
Method: We compared the affinities of the peptides obtained via CIDNP-KD with the state-of-the-art 2D [^1H, ^15N]-HSQC titration experiments measured with 30 μM PDZ2 (Figure S3).
Expression and purification were carried out as in previously reported procedures. In short, expression in Escherichia coli cells (BL21 (DE3)) and purification via Ni-NTA chromatography as the constructs used for the PDZ2 domain of human tyrosine phosphatase 1E and human PIN1 both contained N-terminal polyhistidine tags. Both protein constructs were measured in an NMR buffer consisting of 50 mM NaCl, 20 mM KPO4, and 10% D2O at pH 6.8. For the control [^1H, ^15N]-HSQC experiments, the PDZ2 domain was expressed in ^15N-enriched minimal medium.[34],[43]
All photo-CIDNP and STD-NMR experiments were recorded at 298 K on a Bruker Avance III HD 600 MHz spectrometer equipped with a cryoprobe. The [^15N, ^1H] – HSQC titration experiments of the PDZ2 domain were performed also at 298 K on another Bruker Avance IIII HD 600 MHz spectrometer equipped with a cryoprobe and SampleJet.
Peak picking was performed with the maximal peak picking tool of Mnova software. Plotting, fitting, and data analysis was done in RStudio with the workflow described above. The [^15N, ^1H]-HSQC reference affinities were analyzed with CCPNMR3.1.[62] The backbone assignment was taken from BMRB 34688.
Fig. S3: 2D [15N, 1H]-HSQC titration of peptides to hPDZ2 domain. The 2D [ 15N, 1H]-
HSQC spectra of the titration series in presence of 30 µM hPDZ2 domain and the
corresponding observed chemical shift difference of A74 plotted versus the peptide
(1 picture or pasted object on this page, not shown here)

Question: `CC(C)[C@H](NC(=O)[C@H](C)NC(=O)[C@H](CO)NC(=O)[C@@H](NC(=O)[C@@H](N)CCC(N)=O)C(C)C)C(=O)O` [QVSAV] (H-QVSAV-OH) was tested. Which Kd [1] did it give?
Answer: The Kd was 580 ± 30 µM.

Question: And the Kd ([2]; 15N–1H moiety of A74, read-out: [1H,15N]-HSQC–CSP KD, NH of A74)?
Answer: The Kd was 155 ± 10 µM.

Question: And the Kd ([2]; range over residues, read-out: [1H,15N]-HSQC–CSP KD range of all residues showing chemical shift perturbation)?
Answer: The Kd was 90 to 750 µM.
